Experimental data taken from patent US10590454B2, “Methods of preventing and removing trisulfide bonds” (Biogen MA Inc., priority 2011, dated 2020).

What was measured:
[1] = system: cysteine degradation (release of hydrogen sulfide); assay: Release of hydrogen sulfide from cysteine-containing medium with inhibitors of cysteine degradation; conditions: cell-culture medium, inhibitor 17.7 mM (1:1 to cysteine), 24 hours
Description: In order to test the effect of cysteine degradation inhibitors on release of hydrogen sulfide in cell-culture medium, various inhibitors were added to the medium at the concentration of 17.7 mM, which represents a 1:1 ratio to the concentration of cysteine in the medium. Released hydrogen sulfide concentration was measured after 24 hours of incubation. Briefly, 50 ml of medium was incubated overnight in a closed 100 ml bottle. The headspace was therefore equal to the liquid volume of the container. A Jerome 631-X hydrogen sulfide detector was connected to a short piece of silicon tubing to minimize holdup volume in the instrument. The end of the tubing was inserted into the headspace of the medium-containing bottle, and the Jerome 631-X detector sampled the headspace immediately after opening the bottle.
The effect of pyruvate on release of hydrogen sulfide from cysteine degradation was further tested. The experiments were performed as described above in Example 9. Concentration of released hydrogen sulfide was measured after incubation from solutions containing 17.7 mM cysteine, plus 200 g/L glucose or subgroups of amino acids, in the absence or presence of pyruvate.
The effect of pyruvate on release of hydrogen sulfide from cysteine degradation was also tested in various cell-culture media, including feed liquid, IMDM and DMEM. All cysteine concentrations were normalized to that in the feed liquid. 17.7 mM pyruvate was added to the medium, which represents a 1:1 ratio of cysteine to pyruvate in the medium. The experiments were performed as described above for Example 9. […] Thus, pyruvate can reduce cysteine degradation and H2S release in a variety of compositions and decrease the number of trisulfide bonds.

[2] = Heat induced fragmentation, non-reducing capillary electrophoresis (CE-SDS); format: physicochemical; conditions: 70° C. for 3 minutes with iodoacetamide; compared to mAb-A-LT
Description: In these experiments, analysis of IgG1 mAb was performed by denaturing, non-reducing capillary electrophoresis in the presence of sodium dodecyl sulfate using an IgG Purity/Heterogeneity Assay Kit (# A10663) and ProteomeLab PA-800 instrument (Beckman Coulter). Samples (200 μg) were prepared by heating to 70° C. for 3 minutes in the presence of iodoacetamide, 1 mM SDS and a 10 kDa standard essentially as per manufacturer's instructions (Protocol A10424-AC) and separated for 35 min in a bare fused silica capillary with detection at 220 nm. The results, shown in FIGS. 1A and 1B show an increased level of fragmentation following sample preparation for non-reducing electrophoresis. The electrophoretic migration pattern of the single most abundant fragment was consistent with the loss of one light chain (L) from the intact mAb with the simultaneous generation of a species consisting of two heavy chains and one light chain (HHL fragment). This phenomenon was then used to rapidly screen for conditions that influence trisulfide content in IgG1 mAbs. In this screen, non-reducing electrophoresis was used as a rapid assay for detection of trisulfide bonds.

[3] = Differential scanning calorimetry; format: physicochemical; conditions: preparations with low or high H-L trisulfide or treated with 1 mM cysteine; 25° C. to 100° C.
Description: The DSC was performed using a MicroCal capillary VP-DSC system (Northampton, Mass., USA) with Origin VPViewer2000 v2.0.64 software. Sample concentration was 0.5 mg/mL in 50 mM sodium phosphate, 100 mM NaCl, pH 6.0. Thermograms were generated by scanning temperature from 25° C. to 100° C. at a rate of 2° C./min.

[4] = Stability of trisulfides in vivo in rats after intraperitoneal injection; conditions: rat, 100 mg/kg intraperitoneally, based on column recoveries
Description: The samples were incubated with 100 μL of the resin for 2 h at room temperature with mild agitation. The resin was then washed six times with 0.5 mL of PBS and six times with 0.5 mL of 25 mM sodium phosphate, 100 mM NaCl, pH 5.5, after which the bound antibody was eluted with 25 mM sodium phosphate, pH 2.8, 100-mM NaCl. […] Portions of the serum (750 μL for the 24-h point, and 1050 μL for the 72-h point) were subjected to IgSelect purification using 150 μL of IgSelect (protocol described above).

| Compound | Release of hydrogen sulfide [1] | also measured |
| --- | --- | --- |
| O=CC(O)CO (racemic) [DL-glyceraldehyde] | functionally stopped release of hydrogen sulfide |  |
| CCOC(=O)C(C)=O [ethyl pyruvate] | functionally stopped release of hydrogen sulfide |  |
| O=CC(=O)O [glyoxylic acid] | functionally stopped release of hydrogen sulfide |  |
| COC(=O)C(C)=O [methyl pyruvate] | functionally stopped release of hydrogen sulfide |  |
| mAb1: anti-LINGO-1 antibody Li81, human IgG1 produced in CHO cells |  | Sensitivity to heat treatment (fragmentation to HHL species) [2]: increased sensitivity to extreme heat treatment; Transition temperature profiles [3]: no differences in transition temperature profiles detected; Level of mAb1 in the serum ([4]; after 24 h): 850 µg/mL; Level of mAb1 in the serum ([4]; after 72 h): 700 µg/mL |
